Measurements: ChEMBL document CHEMBL2331252, “Facile one-pot synthesis of novel dispirooxindole-pyrrolidine derivatives and their antimicrobial and anticancer activity against A549 human lung adenocarcinoma cancer cell line” (Bioorg Med Chem Lett, 2013)
Values after ≈ are worked out from the molar mass of the structure shown. Active and inactive are the calls of the source. The calls are words filed in the database; no cut-off is given here.

What was measured:
Candida albicans [1] = assay: Antifungal activity against Candida albicans MTCC 227 after 48 to 72 hrs; type: functional
Klebsiella aerogenes [2] = assay: Antibacterial activity against Enterobacter aerogenes MTCC 111 after 24 hrs; type: functional
Salmonella typhimurium [3] = assay: Antibacterial activity against Salmonella typhimurium MTCC 1251 after 24 hrs; type: functional, Salmonella enterica subsp. enterica serovar Typhimurium
A549 [4] = assay: Cytotoxicity against human A549 cells assessed as cell death at 50 ug/ml by MTT assay; type: functional
Staphylococcus aureus [5] = assay: Antibacterial activity against methicillin-resistant Staphylococcus aureus at 1 mg/disc after 24 hrs by disc diffusion method; type: functional
Micrococcus luteus [6] = assay: Antibacterial activity against Micrococcus luteus MTCC 106 after 24 hrs; type: functional; conditions: MTCC 106, 24 h
Salmonella typhimurium [7] = assay: Antibacterial activity against Salmonella typhimurium MTCC 1251 at 1 mg/disc after 24 hrs by disc diffusion method; type: functional, Salmonella enterica subsp. enterica serovar Typhimurium; conditions: for inhibition: Salmonella enterica subsp. enterica serovar Typhimurium
Proteus vulgaris [8] = assay: Antibacterial activity against Proteus vulgaris MTCC 1771 at 1 mg/disc after 24 hrs by disc diffusion method; type: functional
Shigella flexneri [9] = assay: Antibacterial activity against Shigella flexneri MTCC 1457 after 24 hrs; type: functional; conditions: MTCC 1457, 24 h
Klebsiella pneumoniae [10] = assay: Antibacterial activity against Klebsiella pneumoniae MTCC 109 at 1 mg/disc after 24 hrs by disc diffusion method; type: functional
A549 [11] = assay: Cytotoxicity against human A549 cells assessed as cell death at 100 ug/ml by MTT assay; type: functional
Klebsiella pneumoniae [12] = assay: Antibacterial activity against Klebsiella pneumoniae MTCC 109 after 24 hrs; type: functional; conditions: MTCC 109, 24 h
[13] = Antifungal activity against Malassezia pachydermatis at 1 mg/disc after 48 hrs by disc diffusion method; type: functional
Staphylococcus aureus [14] = assay: Antibacterial activity against methicillin-resistant Staphylococcus aureus after 24 hrs; type: functional
Candida albicans [15] = assay: Antifungal activity against Candida albicans MTCC 227 at 1 mg/disc after 48 hrs by disc diffusion method; type: functional
Staphylococcus aureus [16] = assay: Antibacterial activity against Staphylococcus aureus MTCC 96 at 1 mg/disc after 24 hrs by disc diffusion method; type: functional
Micrococcus luteus [17] = assay: Antibacterial activity against Micrococcus luteus MTCC 106 at 1 mg/disc after 24 hrs by disc diffusion method; type: functional
Shigella flexneri [18] = assay: Antibacterial activity against Shigella flexneri MTCC 1457 at 1 mg/disc after 24 hrs by disc diffusion method; type: functional
A549 [19] = assay: Cytotoxicity against human A549 cells assessed as cell death at 200 ug/ml by MTT assay; type: functional
Klebsiella aerogenes [20] = assay: Antibacterial activity against Enterobacter aerogenes MTCC 111 at 1 mg/disc after 24 hrs by disc diffusion method; type: functional
Staphylococcus aureus [21] = assay: Antibacterial activity against Staphylococcus aureus MTCC 96 after 24 hrs; type: functional
Proteus vulgaris [22] = assay: Antibacterial activity against Proteus vulgaris MTCC 1771 after 24 hrs; type: functional
[23] = Salmonella enterica, MTCC 1251, 24 h
[24] = Salmonella enterica subsp. enterica serovar Typhimurium

| SMILES | MIC (Candida albicans [1]) | MIC (Klebsiella aerogenes [2]; MTCC 111, 24 h) [µg/mL] | MIC (Salmonella typhimurium [3]; [23]) [µg/mL] | Activity (A549 [4]) [%] | inhibition zone (IZ) (Staphylococcus aureus [5]) [mm] | MIC (Micrococcus luteus [6]) [µg/mL] | inhibition zone (IZ) (Proteus vulgaris [8]) [mm] | MIC (Shigella flexneri [9]) [µg/mL] | inhibition zone (IZ) (Klebsiella pneumoniae [10]) [mm] | Activity (A549 [11]) [%] | MIC (Klebsiella pneumoniae [12]) [µg/mL] | inhibition [13] | MIC (Staphylococcus aureus [14]) | inhibition zone (IZ) (Staphylococcus aureus [16]) [mm] | inhibition zone (IZ) (Micrococcus luteus [17]) [mm] | inhibition zone (IZ) (Shigella flexneri [18]) [mm] | Activity (A549 [19]) [%] | inhibition zone (IZ) (Klebsiella aerogenes [20]) [mm] | MIC (Staphylococcus aureus [21]; MTCC 96, 24 h) [µg/mL] | MIC (Proteus vulgaris [22]; MTCC 1771, 24 h) [µg/mL] | other results |
| --- | --- | --- | --- | --- | --- | --- | --- | --- | --- | --- | --- | --- | --- | --- | --- | --- | --- | --- | --- | --- | --- |
| CCCCCCN1C(=O)[C@@]2(c3ccccc31)N(C)C[C@](C#N)(C(=O)c1c[nH]c3ccccc13)[C@]21C(=O)Nc2ccccc21 | inactive | 500 (≈ 875 µM) | 500 (≈ 875 µM) | 48.03 | 10 | 500 (≈ 875 µM) | 9 | 500 (≈ 875 µM) | 11 | 56.74 | 125 (≈ 219 µM) | inactive | 500 µg/mL (≈ 875 µM) | 11 | 10 | 10 | 62.03 | 9 | 125 (≈ 219 µM) | 500 (≈ 875 µM) | inhibition zone (IZ) (Salmonella typhimurium [7]): 9 mm; inhibition (Candida albicans [15]): inactive |
| CN1C[C@](C#N)(C(=O)c2c[nH]c3ccccc23)[C@]2(C(=O)Nc3ccccc32)[C@@]12C(=O)Nc1ccc(Br)cc12 | 500 µg/mL (≈ 883 µM) |  | 125 (≈ 221 µM) | 3.43 | 9 | 1000 (≈ 1770 µM) | 12 | 500 (≈ 883 µM) | 9 | 9.34 | 500 (≈ 883 µM) | inactive | 500 µg/mL (≈ 883 µM) | 11 | 9 | 10 | 15.98 | 10 | 500 (≈ 883 µM) | 250 (≈ 441 µM) | MIC (Klebsiella aerogenes [2]): inactive; inhibition zone (IZ) (Salmonella typhimurium [7]): 15 mm; inhibition zone (IZ) (Candida albicans [15]): 11 mm |
| CN1C(=O)[C@@]2(c3cc(F)ccc31)N(C)C[C@](C#N)(C(=O)c1c[nH]c3ccccc13)[C@]21C(=O)Nc2ccccc21 | 500 µg/mL (≈ 962 µM) | 125 (≈ 241 µM) | 500 (≈ 962 µM) | 1.41 | 9 | 500 (≈ 962 µM) | 8 | 500 (≈ 962 µM) | 9 | 12.22 | 500 (≈ 962 µM) | inactive | 500 µg/mL (≈ 962 µM) | 10 | 10 | 9 | 25.51 | 11 | 500 (≈ 962 µM) | 500 (≈ 962 µM) | inhibition zone (IZ) (Salmonella typhimurium [7]): 8 mm; inhibition zone (IZ) (Candida albicans [15]): 9 mm |
| Cc1ccc2c(c1)[C@]1(C(=O)N2)N(C)C[C@](C#N)(C(=O)c2c[nH]c3ccccc23)[C@]12C(=O)Nc1ccccc12 | inactive | 500 (≈ 997 µM) | 500 (≈ 997 µM) | 31.6 | 10 | 500 (≈ 997 µM) | 10 | 125 (≈ 249 µM) | 9 | 56.34 | 500 (≈ 997 µM) | inactive | 500 µg/mL (≈ 997 µM) |  | 10 | 11 | 62.96 | 9 |  | 500 (≈ 997 µM) | inhibition zone (IZ) (Salmonella typhimurium [7]): 10 mm; inhibition (Candida albicans [15]): inactive; inhibition (Staphylococcus aureus [16]): inactive; MIC (Staphylococcus aureus [21]): inactive |
| CN1C(=O)[C@@]2(c3cc(Cl)ccc31)N(C)C[C@](C#N)(C(=O)c1c[nH]c3ccccc13)[C@]21C(=O)Nc2ccccc21 | inactive | 125 (≈ 233 µM) | 500 (≈ 933 µM) | 3.76 | 10 | 125 (≈ 233 µM) | 11 | 500 (≈ 933 µM) | 10 | 12.98 | 125 (≈ 233 µM) | inactive | 500 µg/mL (≈ 933 µM) | 9 | 12 | 9 | 22.21 | 11 | 500 (≈ 933 µM) | 125 (≈ 233 µM) | inhibition zone (IZ) (Salmonella typhimurium [7]): 9 mm; inhibition (Candida albicans [15]): inactive |
| CN1C[C@](C#N)(C(=O)c2c[nH]c3ccccc23)[C@]2(C(=O)Nc3ccccc32)[C@@]12C(=O)Nc1ccc(Cl)cc12 | 500 µg/mL (≈ 958 µM) |  | 500 (≈ 958 µM) | 3.58 | 8 | 1000 (≈ 1920 µM) | 13 | 1000 (≈ 1920 µM) | 14 | 7.38 | 125 (≈ 239 µM) | inactive | 500 µg/mL (≈ 958 µM) | 9 | 10 | 11 | 13.15 |  | 500 (≈ 958 µM) | 250 (≈ 479 µM) | MIC (Klebsiella aerogenes [2]): inactive; inhibition zone (IZ) (Salmonella typhimurium [7]): 8 mm; inhibition zone (IZ) (Candida albicans [15]): 9 mm; inhibition (Klebsiella aerogenes [20]): inactive |
| Cc1ccc2c(c1)[C@]1(C(=O)N2C)N(C)C[C@](C#N)(C(=O)c2c[nH]c3ccccc23)[C@]12C(=O)Nc1ccccc12 | 500 µg/mL (≈ 970 µM) | 125 (≈ 242 µM) | 500 (≈ 970 µM) | 0.66 | 8 | 500 (≈ 970 µM) | 12 | 125 (≈ 242 µM) | 11 | 10.73 | 125 (≈ 242 µM) | inactive | 500 µg/mL (≈ 970 µM) | 9 | 10 | 11 | 15.12 | 13 | 500 (≈ 970 µM) | 125 (≈ 242 µM) | inhibition zone (IZ) (Salmonella typhimurium [7]): 9 mm; inhibition zone (IZ) (Candida albicans [15]): 8 mm |
| CN1C[C@](C#N)(C(=O)c2c[nH]c3ccccc23)[C@]2(C(=O)Nc3ccccc32)C12C(=O)c1cccc3cccc2c13 (some centres not stated) | 500 µg/mL (≈ 957 µM) | 500 (≈ 957 µM) |  | 7.55 |  | 500 (≈ 957 µM) | 8 | 500 (≈ 957 µM) | 8 | 21.61 | 500 (≈ 957 µM) | inactive | inactive | 11 | 9 | 9 | 29.72 | 10 | 125 (≈ 239 µM) | 500 (≈ 957 µM) | MIC (Salmonella typhimurium [3]; [24]): inactive; inhibition (Staphylococcus aureus [5]): inactive; inhibition (Salmonella typhimurium [7]): inactive; inhibition zone (IZ) (Candida albicans [15]): 9 mm |
| CCN1C(=O)[C@@]2(c3ccccc31)N(C)C[C@](C#N)(C(=O)c1c[nH]c3ccccc13)[C@]21C(=O)Nc2ccccc21 | 500 µg/mL (≈ 970 µM) | 500 (≈ 970 µM) | 500 (≈ 970 µM) | 7.16 | 11 | 500 (≈ 970 µM) | 9 | 500 (≈ 970 µM) | 10 | 18.61 | 500 (≈ 970 µM) | inactive | 500 µg/mL (≈ 970 µM) | 9 | 11 | 9 | 26.58 | 8 | 500 (≈ 970 µM) | 500 (≈ 970 µM) | inhibition zone (IZ) (Salmonella typhimurium [7]): 7 mm; inhibition zone (IZ) (Candida albicans [15]): 8 mm |
| CN1C(=O)[C@@]2(c3cc(Br)ccc31)N(C)C[C@](C#N)(C(=O)c1c[nH]c3ccccc13)[C@]21C(=O)Nc2ccccc21 | inactive | 125 (≈ 215 µM) | 500 (≈ 861 µM) | 0.87 | 8 | 125 (≈ 215 µM) | 9 | 125 (≈ 215 µM) | 8 | 2.07 | 500 (≈ 861 µM) | inactive | 500 µg/mL (≈ 861 µM) | 9 | 11 | 11 | 10.92 | 10 | 500 (≈ 861 µM) | 500 (≈ 861 µM) | inhibition zone (IZ) (Salmonella typhimurium [7]): 9 mm; inhibition (Candida albicans [15]): inactive |
| CN1C[C@](C#N)(C(=O)c2c[nH]c3ccccc23)[C@]2(C(=O)Nc3ccccc32)[C@@]12C(=O)Nc1ccc(F)cc12 | 125 µg/mL (≈ 247 µM) | 500 (≈ 989 µM) |  | 3.6 | 10 | 500 (≈ 989 µM) |  | 500 (≈ 989 µM) | 8 | 10.82 | 500 (≈ 989 µM) | inactive | 500 µg/mL (≈ 989 µM) | 12 | 9 | 9 | 16.79 | 9 | 125 (≈ 247 µM) |  | MIC (Salmonella typhimurium [3]; [24]): inactive; inhibition (Salmonella typhimurium [7]): inactive; inhibition (Proteus vulgaris [8]): inactive; inhibition zone (IZ) (Candida albicans [15]): 11 mm; MIC (Proteus vulgaris [22]): inactive |
